This passage reports IC50 and hepatic glucose production results from US8546394B2, “Substituted [1,2,4]triazolo[4,3-A]pyrazine 11-beta-hydroxysteroid dehydrogenase inhibitors” (Bristol-Myers Squibb Company, priority 2007, dated 2013).

Test [1] deals with T1, recombinant human 11beta-HSD1 (Homo sapiens, UniProt P28845).
T1 construct: Full length recombinant human 11β-HSD1 cDNAs and the cDNA encoding human 11β-HSD2 were expressed stably in HEK 293 EBNA cells; made in house
Briefly: 11β-HSD1 SPA enzyme assay (in vitro inhibition, human microsomes, 3H-cortisone). It counts as biochemical. Conditions: microsomes from HEK 293 EBNA cells, 40 nM 3H-cortisone, 4 hrs room temperature. On the procedure: The in vitro inhibition of recombinant human 11beta-HSD1 was determined as follows.
[^3H]-Cortisone with a specific radioactivity of 50 Ci/mmol (ART 743, Lot: 050906) was from American Radiolabeled Chemicals, Inc. (St Louis, Mo.); monoclonal ab to Cortisol (P01-9294M-P, Lot: L-28) was from East Coast Bio., (North Berwick, Me.); Protein A-yttrium silicate, type-1, SPA bead NJ® (RPN-143) was from Amersham LifeSciences, (Piscataway, N.J.); 384 well-Optiplate384® (#6007299) was from PerkinElmer (Boston, Mass.); DPBS, pH 7.4 (14040) is from GIBCO, (Grand Island, N.Y.); carbenoxolone (C4790) is from Sigma, (St Louis, Mo.).
Full length recombinant human 11β-HSD1 cDNAs and the cDNA encoding human 11β-HSD2 were expressed stably in HEK 293 EBNA cells. Cells were grown in DMEM (high glucose) containing MEM non-essential amino acids, L-glutamine, hygromycin B (200 μg/ml), and G-418 (200 μg/ml) in the presence of 10% FBS.
Human 11β-HSD1 transfected HEK 293 EBNA cells were grown to 80% confluency and the cell pellet was quick frozen and stored at −80° C. before purification. Cell paste, 40 g from −80° C. storage, was thawed in water and then 100 ml of homogenization buffer H (0.01 M sodium phosphate pH 6.5 containing 0.25 M sucrose and protease inhibitor cocktail (Roche #1836145 1 tablet per 50 ml) were added to completely thaw the paste. The cell paste suspension was homogenized using a Polytron for 20 seconds to create a homogeneous mixture. Additional buffer H was added to a volume of 300 ml and cells were broken open using a N2-bomb (at 4° C.) in two batches by treating at 500 psi. The extract was centrifuged at 750×g for 30 min. The supernatant was centrifuged at 20,000×g for 30 min. The supernatant was further centrifuged at 105,000×g for 60 min. The 105,000×g pellet was resuspended in buffer H and centrifuged at 105,000×g for 60 min. The microsome pellet was scraped from the bottom of tube and resuspended in 0.01M phosphate buffer, pH 6.5 containing protease inhibitors (Roche #1836145, 1 tablet per 50 ml). Aliquots were stored at −80° C. until needed. The protein concentration was measured by the BioRad method using BSA standard.
Compounds were dissolved in DMSO to obtain 10 mM stock concentrations. From the 10 mM stock, the compounds were diluted in DMSO to achieve the concentrations.
11β-HSD1 SPA Enzyme Assay
11β-HSD1 was assayed by Scintillation Proximity assay in a 384-well Perkin Elmer white plate. The dose response of the compounds was determined using 11 half-log dilutions of compound in DMSO in duplicate. To each well, 0.5 μl of compound dilution in DMSO were added. 15 μl of assay buffer (for blanks) or 15 μl of human microsomes in assay buffer were added next and the plates were incubated for 10 min at room temperature. The final microsomal protein concentration was 1.1 μg/assay. Duplicates were in the same plate one row below the other. 10 μl of ^3H-cortisone (final concentration 40 nM) was added to each well and the plate was spun down to mix and bring down the contents to the bottom of the wells. The plates were incubated at room temperature with gentle shaking for 4 hrs. The reaction was stopped with addition of 10 μl of 10 mM carbenoxolone. Then, 0.5 mg of yttrium silicate SPA beads coupled to anti-cortisol antibody in 20 μl were added to all the wells of plate, which were spun down once more and incubated at room temperature overnight. The plate was read in a TopCount® (1 min/well). Data were uploaded automatically to Tool Set, a Lead Evaluation informatics program for data capture and calculation. Graphs were generated with the Curve Master program.

Test [2] has as its system mildly overweight individuals with type 2 diabetes. Conditions: seven day study, versus placebo; cited from earlier work.

Structures can show the parent of a compound that is named as a salt.

T1 sequence (P28845 whole entry): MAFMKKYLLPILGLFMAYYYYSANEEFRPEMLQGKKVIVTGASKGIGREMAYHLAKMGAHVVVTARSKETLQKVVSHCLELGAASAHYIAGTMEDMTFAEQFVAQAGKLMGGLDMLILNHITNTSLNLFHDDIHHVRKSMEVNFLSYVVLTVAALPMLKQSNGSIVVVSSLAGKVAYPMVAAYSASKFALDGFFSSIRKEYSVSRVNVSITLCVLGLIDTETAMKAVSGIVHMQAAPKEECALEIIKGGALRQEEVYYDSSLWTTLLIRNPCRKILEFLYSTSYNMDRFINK

As usually defined, the IC50 is the concentration that gives 50% inhibition. In the case of `FC(F)(F)Oc1ccccc1Oc1nccn2c(C3(c4ccc(Cl)cc4)CC3)nnc12` [Example 4, 8-(2-(Trifluoromethoxy)phenoxy)-3-(1-(4-chlorophenyl)cyclopropyl)-[1,2,4]triazolo[4,3-a]pyrazine], in test [1], the IC50 came to 0.5 nM.
On the same count and under the same terms, as for `C=CCCc1nccn2c(C3(c4ccc(Cl)cc4)CC3)nnc12` [Example 25], the figure is 1.3 nM; as for `CC(C)(O)c1ccnn2c(C3(c4ccc(Cl)cc4)CC3)nnc12` [Example 36, 2-(3-(1-(4-Chlorophenyl)cyclopropyl)-[1,2,4]-triazolo[4,3-b]pyridazin-8-yl)propan-2-ol], 1.2 nM.
Take `CC(C)(Oc1ccc(Cl)cc1Cl)c1nnc2c(C3CC3)nccn12` [Example 38]: the IC50 in test [1] came to 1.8 nM.
Same read-out and setting: under `Clc1ccc(C2(c3nnc4c5c(cnn34)CCCC5)CC2)cc1` [Example 29, 3-(1-(4-Chlorophenyl)cyclopropyl)-7,8,9,10-tetrahydro-[1,2,4]-triazolo[3,4-a]phthalazine TFA Salt] stands 12 nM.
The same measure, in the same setting: as for `CC(C)(c1ccc(Cl)cc1)c1nnc2c(C3CC3)nccn12` [Example 1, 3-(2-(4-Chlorophenyl)propan-2-yl)-8-cyclopropyl-[1,2,4]triazolo[4,3-a]pyrazine], the figure is 1.8 nM.
As to `CC1(C)[C@@H](OC(=O)CCC(=O)O)CC[C@]2(C)[C@H]3C(=O)C=C4[C@@H]5C[C@@](C)(C(=O)O)CC[C@]5(C)CC[C@@]4(C)[C@]3(C)CC[C@@H]12` [carbenoxolone], the hepatic glucose production result in test [2] is recorded as “decrease in hepatic glucose production”.
`Clc1ccc(C2(c3nnc4c(C5CC5)nccn34)CCC2)c(Cl)c1` [Example 6]: the IC50 in test [1] was found to be 0.6 nM.
Still for that read-out and setting: under `Clc1ccc(C2(c3nnc4nc(C5CC5)ccn34)CC2)cc1` [Example 3, 3-(1-(4-Chlorophenyl)cyclopropyl)-7-cyclopropyl-[1,2,4]triazolo[4,3-a]pyrimidine] stands 453 nM; under `CC(C)(Oc1ccccc1)c1nnc2c(Cl)nccn12` [Example 16], 6030 nM.
In the case of `Clc1ccc(C2(c3nnc4c5sccc5ncn34)CC2)cc1` [Example 28, 3-(1-(4-Chlorophenyl)cyclopropyl)thieno[2,3-e][1,2,4]triazolo[4,3-c]pyrimidine], in test [1], the IC50 came out at 86 nM.
On the same count and under the same terms, under `CC(C)(O)c1nccn2c(C3(c4ccc(Cl)cc4)CC3)nnc12` [Example 35, 2-(3-(1-(4-Chlorophenyl)cyclopropyl)-[1,2,4]triazolo[4,3-a]pyrazin-8-yl)propan-2-ol TFA salt] stands 7.9 nM.
On the same count and under the same terms, under `OC12CCC(c3nnc4c(Oc5ccccc5Cl)nccn34)(CC1)C2` [Example 27] stands 336 nM; under `CC(C)(c1ccc(F)cc1)c1nnc2c(Cl)nccn12` [Example 41], 5130 nM.
